The target in the assay is Mitogen-activated protein kinase 10 (Homo sapiens, UniProt P53779). The assay is described as follows: Inhibition of JNK3-induced transfer of [gamma33P]ATP to biotinylated ATF2 by scintillation proximity assay. A general note: Scintillation proximity formats need no separation of bound from free tracer.

SMILES strings stand for the structures.

By IC50 is commonly meant the point on the concentration scale where inhibition reaches its midpoint. High values mean lower potency, low ones higher potency.

Chain of Mitogen-activated protein kinase 10 (P53779 whole entry): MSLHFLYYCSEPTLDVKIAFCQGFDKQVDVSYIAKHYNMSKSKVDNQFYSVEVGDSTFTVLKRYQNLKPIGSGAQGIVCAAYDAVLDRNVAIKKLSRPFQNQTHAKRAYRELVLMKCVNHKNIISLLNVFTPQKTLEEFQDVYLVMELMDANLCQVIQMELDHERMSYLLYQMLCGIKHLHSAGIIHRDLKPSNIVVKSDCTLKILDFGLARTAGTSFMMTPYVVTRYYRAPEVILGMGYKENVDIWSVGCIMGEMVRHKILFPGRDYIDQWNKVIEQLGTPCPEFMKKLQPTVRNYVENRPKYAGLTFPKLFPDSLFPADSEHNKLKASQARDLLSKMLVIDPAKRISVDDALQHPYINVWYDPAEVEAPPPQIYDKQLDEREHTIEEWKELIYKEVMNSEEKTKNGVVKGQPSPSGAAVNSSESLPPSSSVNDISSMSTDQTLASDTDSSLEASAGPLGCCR

In the case of `COc1cc2c(cc1O)C[C@@H]1c3cc(O)c(O)cc3C[C@H]3c4cc(O)c(O)cc4CC[N@@+]213` [LATIFOLIAN B], the midpoint of inhibition, the IC50, lay at 10 µM. `Oc1cc2c(cc1O)[C@H]1Cc3cc(O)c(O)cc3[N@+]13CCc1cc(O)c(O)cc1[C@@H]3C2` [LATIFOLIAN A] yielded an IC50 of 13 µM.

The values above are taken from ChEMBL document CHEMBL1141751, “Latifolians A and B, novel JNK3 kinase inhibitors from the Papua New Guinean plant Gnetum latifolium” (J Nat Prod, 2005).
